Calls of active or inactive are those of the source. The rule behind the calls is not given here. Square brackets hold non-standard residues; d marks the D form. Peptide text beside a SMILES is read from it. * marks the point of attachment. Leu(ol) = CC(C)C[C@H](N)CO; dIva = CC[C@@](C)(N)C(=O)O; Octanoyl = CCCCCCCC(=O)*; Aib = CC(C)(N)C(=O)O
Key:
[1] = system: MDA-MB-231; assay: Antiproliferative activity against human MDA-MB-231 cells assessed as reduction in cell viability incubated for 24 hrs by MTT assay; format: functional, cell-based; conditions: MDA-MB-231, 24 h
[2] = system: SNU-449; assay: Antiproliferative activity against human SNU-449 cells assessed as reduction in cell viability incubated for 24 hrs by MTT assay; format: functional, cell-based; conditions: SNU-449, 24 h
[3] = system: SK-OV-3; assay: Antiproliferative activity against human SK-OV-3 cells assessed as reduction in cell viability incubated for 24 hrs by MTT assay; format: functional, cell-based; conditions: SK-OV-3, 24 h
[4] = system: DU-145; assay: Antiproliferative activity against human DU-145 cells assessed as reduction in cell viability incubated for 24 hrs by MTT assay; format: functional, cell-based; conditions: DU-145, 24 h
[5] = system: HCT-116; assay: Antiproliferative activity against human HCT-116 cells assessed as reduction in cell viability incubated for 24 hrs by MTT assay; format: functional, cell-based; conditions: HCT-116, 24 h
[6] = system: Fusarium oxysporum; assay: Antifungal activity against Fusarium oxysporum KCTC 16654; format: functional, organism-based
[7] = system: Candida albicans; assay: Antifungal activity against Candida albicans; format: functional, organism-based
[8] = system: [Candida] auris; assay: Antifungal activity against Candida auris; format: functional, organism-based; conditions: Candidozyma auris

## CCCCCCCC(=O)NCC(=O)N[C@@H](C)C(=O)N[C@H](C(=O)N[C@](C)(CC)C(=O)N[C@@H](C)C(=O)N[C@@H](CC(C)C)C(=O)N[C@H](CO)CC(C)C)C(C)C
[1]
  IC50: 11.5 µM
[2]
  IC50: 39 µM
[3]
  IC50: 47 µM
[4]
  IC50: 15.1 µM
[5]
  IC50: 8.9 µM
[6]
  Activity: inactive
[7]
  Activity: inactive
[8]
  Activity: inactive

## CCCCCCCC(=O)NCC(=O)N[C@@H](C)C(=O)N[C@@H](CC(C)C)C(=O)N[C@](C)(CC)C(=O)N[C@@H](C)C(=O)N[C@@H](CC(C)C)C(=O)N[C@H](CO)CC(C)C
[1]
  IC50: 18.5 µM
[2]
  IC50: 222 µM
[3]
  IC50: 50.3 µM
[4]
  IC50: 18.2 µM
[5]
  IC50: 37.9 µM
[6]
  Activity: inactive
[7]
  Activity: inactive
[8]
  Activity: inactive

## CC[C@H](C)[C@H](NC(=O)C(C)(C)NC(=O)C(C)(C)NC(=O)[C@H](C)NC(=O)C(C)(C)NC(C)=O)C(=O)N[C@@H](CCC(N)=O)C(=O)NC(C)(C)C(=O)NC(C)(C)C(=O)NC(C)(C)C(=O)N[C@@H](CO)C(=O)N[C@@H](CC(C)C)C(=O)NC(C)(C)C(=O)N1CCC[C@H]1C(=O)N[C@H](C(=O)NC(C)(C)C(=O)NC(C)(C)C(=O)N[C@@H](CCC(N)=O)C(=O)N[C@@H](CCC(N)=O)C(=O)N[C@H](CO)CC(C)C)C(C)C (Ac-[Aib]A[Aib][Aib]IQ[Aib][Aib][Aib]SL[Aib]PV[Aib][Aib]QQ[Leu(ol)])
[1]
  IC50: 2.3 µM
[2]
  IC50: 5.7 µM
[3]
  IC50: 3.8 µM
[4]
  IC50: 2.1 µM
[5]
  IC50: 3.2 µM
[6]
  Activity: inactive
[7]
  Activity: inactive
[8]
  Activity: inactive

## CC[C@H](C)[C@H](NC(=O)C(C)(C)NC(=O)C(C)(C)NC(=O)[C@H](C)NC(=O)C(C)(C)NC(C)=O)C(=O)N[C@@H](CCC(N)=O)C(=O)NC(C)(C)C(=O)NC(C)(C)C(=O)NC(C)(C)C(=O)N[C@@H](CO)C(=O)N[C@H](C(=O)NC(C)(C)C(=O)N1CCC[C@H]1C(=O)N[C@H](C(=O)NC(C)(C)C(=O)NC(C)(C)C(=O)N[C@@H](CCC(N)=O)C(=O)N[C@@H](CCC(N)=O)C(=O)N[C@H](CO)CC(C)C)C(C)C)C(C)C (Ac-[Aib]A[Aib][Aib]IQ[Aib][Aib][Aib]SV[Aib]PV[Aib][Aib]QQ[Leu(ol)])
[1]
  IC50: 8.7 µM
[2]
  IC50: > 150 µM
[3]
  IC50: 26.7 µM
[4]
  IC50: 12.2 µM
[5]
  IC50: 9 µM
[6]
  Activity: inactive
[7]
  Activity: inactive
[8]
  Activity: inactive

## CC(=O)NC(C)(C)C(=O)N[C@@H](C)C(=O)NC(C)(C)C(=O)NC(C)(C)C(=O)N[C@@H](CC(C)C)C(=O)N[C@@H](CCC(N)=O)C(=O)NC(C)(C)C(=O)NC(C)(C)C(=O)NC(C)(C)C(=O)N[C@@H](CO)C(=O)N[C@@H](CC(C)C)C(=O)NC(C)(C)C(=O)N1CCC[C@H]1C(=O)N[C@H](C(=O)NC(C)(C)C(=O)NC(C)(C)C(=O)N[C@@H](CCC(N)=O)C(=O)N[C@@H](CCC(N)=O)C(=O)N[C@H](CO)CC(C)C)C(C)C (Ac-[Aib]A[Aib][Aib]LQ[Aib][Aib][Aib]SL[Aib]PV[Aib][Aib]QQ[Leu(ol)])
[1]
  IC50: 2.3 µM
[2]
  IC50: 10.4 µM
[3]
  IC50: 4.1 µM
[4]
  IC50: 4.4 µM
[5]
  IC50: 3.7 µM
[6]
  Activity: inactive
[7]
  Activity: inactive
[8]
  Activity: inactive

## CC(=O)NC(C)(C)C(=O)N[C@@H](C)C(=O)NC(C)(C)C(=O)NC(C)(C)C(=O)N[C@@H](CC(C)C)C(=O)N[C@@H](CCC(N)=O)C(=O)NC(C)(C)C(=O)NC(C)(C)C(=O)NC(C)(C)C(=O)N[C@@H](CO)C(=O)N[C@H](C(=O)NC(C)(C)C(=O)N1CCC[C@H]1C(=O)N[C@H](C(=O)NC(C)(C)C(=O)NC(C)(C)C(=O)N[C@@H](CCC(N)=O)C(=O)N[C@@H](CCC(N)=O)C(=O)N[C@H](CO)CC(C)C)C(C)C)C(C)C (Ac-[Aib]A[Aib][Aib]LQ[Aib][Aib][Aib]SV[Aib]PV[Aib][Aib]QQ[Leu(ol)])
[1]
  IC50: 7.2 µM
[2]
  IC50: 30.8 µM
[3]
  IC50: 11.9 µM
[4]
  IC50: 12 µM
[5]
  IC50: 8.7 µM
[6]
  Activity: inactive
[7]
  Activity: inactive
[8]
  Activity: inactive

## CC[C@H](C)[C@H](NC(=O)C(C)(C)NC(=O)C(C)(C)NC(=O)[C@H](CO)NC(=O)C(C)(C)NC(C)=O)C(=O)N[C@@H](CCC(N)=O)C(=O)NC(C)(C)C(=O)NC(C)(C)C(=O)NC(C)(C)C(=O)N[C@@H](CO)C(=O)N[C@@H](CC(C)C)C(=O)NC(C)(C)C(=O)N1CCC[C@H]1C(=O)N[C@H](C(=O)NC(C)(C)C(=O)NC(C)(C)C(=O)N[C@@H](CCC(N)=O)C(=O)N[C@@H](CCC(N)=O)C(=O)N[C@H](CO)CC(C)C)C(C)C (Ac-[Aib]S[Aib][Aib]IQ[Aib][Aib][Aib]SL[Aib]PV[Aib][Aib]QQ[Leu(ol)])
[1]
  IC50: 1 µM
[2]
  IC50: 11.3 µM
[3]
  IC50: 2.4 µM
[4]
  IC50: 2 µM
[5]
  IC50: 4.3 µM
[6]
  Activity: inactive
[7]
  Activity: inactive
[8]
  Activity: inactive

## CC(=O)NC(C)(C)C(=O)N[C@@H](CO)C(=O)NC(C)(C)C(=O)NC(C)(C)C(=O)N[C@@H](CC(C)C)C(=O)N[C@@H](CCC(N)=O)C(=O)NC(C)(C)C(=O)NC(C)(C)C(=O)NC(C)(C)C(=O)N[C@@H](CO)C(=O)N[C@@H](CC(C)C)C(=O)NC(C)(C)C(=O)N1CCC[C@H]1C(=O)N[C@H](C(=O)NC(C)(C)C(=O)NC(C)(C)C(=O)N[C@@H](CCC(N)=O)C(=O)N[C@@H](CCC(N)=O)C(=O)N[C@H](CO)CC(C)C)C(C)C (Ac-[Aib]S[Aib][Aib]LQ[Aib][Aib][Aib]SL[Aib]PV[Aib][Aib]QQ[Leu(ol)])
[1]
  IC50: 2.5 µM
[2]
  IC50: 13 µM
[3]
  IC50: 12.4 µM
[4]
  IC50: 3.3 µM
[5]
  IC50: 4.4 µM
[6]
  Activity: inactive
[7]
  Activity: inactive
[8]
  Activity: inactive

## CC(=O)NC(C)(C)C(=O)N[C@@H](CO)C(=O)NC(C)(C)C(=O)NC(C)(C)C(=O)N[C@@H](CC(C)C)C(=O)N[C@@H](CCC(N)=O)C(=O)NC(C)(C)C(=O)NC(C)(C)C(=O)NC(C)(C)C(=O)N[C@@H](CO)C(=O)N[C@H](C(=O)NC(C)(C)C(=O)N1CCC[C@H]1C(=O)N[C@H](C(=O)NC(C)(C)C(=O)NC(C)(C)C(=O)N[C@@H](CCC(N)=O)C(=O)N[C@@H](CCC(N)=O)C(=O)N[C@H](CO)CC(C)C)C(C)C)C(C)C (Ac-[Aib]S[Aib][Aib]LQ[Aib][Aib][Aib]SV[Aib]PV[Aib][Aib]QQ[Leu(ol)])
[1]
  IC50: 80.2 µM
[2]
  IC50: 131 µM
[3]
  IC50: 41.1 µM
[4]
  IC50: 30.9 µM
[5]
  IC50: 32.8 µM
[6]
  Activity: inactive
[7]
  Activity: inactive
[8]
  Activity: inactive

## CCCCCCCC(=O)NCC(=O)N[C@@H](C)C(=O)N[C@@H](CC(C)C)C(=O)NC(C)(C)C(=O)N[C@@H](C)C(=O)N[C@H](C(=O)N[C@H](CO)CC(C)C)[C@@H](C)CC (Octanoyl-GAL[Aib]AI[Leu(ol)])
[1]
  IC50: 17.6 µM
[2]
  IC50: > 150 µM
[3]
  IC50: 18.7 µM
[4]
  IC50: 25.4 µM
[5]
  IC50: 27.4 µM
[6]
  Activity: inactive
[7]
  Activity: inactive
[8]
  Activity: inactive

## CCCCCCCC(=O)NCC(=O)N[C@@H](C)C(=O)N[C@@H](CC(C)C)C(=O)NC(C)(C)C(=O)N[C@@H](C)C(=O)N[C@@H](CC(C)C)C(=O)N[C@H](CO)CC(C)C (Octanoyl-GAL[Aib]AL[Leu(ol)])
[1]
  IC50: 7.3 µM
[2]
  IC50: 17.3 µM
[3]
  IC50: 12.5 µM
[4]
  IC50: 13 µM
[5]
  IC50: 12 µM
[6]
  Activity: inactive
[7]
  Activity: inactive
[8]
  Activity: inactive

## CCCCCCCC(=O)NCC(=O)N[C@@H](C)C(=O)N[C@@H](CC(C)C)C(=O)N[C@](C)(CC)C(=O)N[C@@H](C)C(=O)N[C@H](C(=O)N[C@H](CO)CC(C)C)[C@@H](C)CC (Octanoyl-GAL[dIva]AI[Leu(ol)])
[1]
  IC50: 4.5 µM
[2]
  IC50: 8.8 µM
[3]
  IC50: 6.3 µM
[4]
  IC50: 4.5 µM
[5]
  IC50: 8 µM
[6]
  Activity: inactive
[7]
  Activity: inactive
[8]
  Activity: inactive

## CCCCCCCC(=O)NCC(=O)N[C@@H](C)C(=O)N[C@H](C(=O)NC(C)(C)C(=O)N[C@@H](C)C(=O)N[C@@H](CC(C)C)C(=O)N[C@H](CO)CC(C)C)C(C)C (Octanoyl-GAV[Aib]AL[Leu(ol)])
[1]
  IC50: 25.7 µM
[2]
  IC50: > 150 µM
[3]
  IC50: 60.7 µM
[4]
  IC50: 31.8 µM
[5]
  IC50: > 150 µM
[6]
  Activity: inactive
[7]
  Activity: inactive
[8]
  Activity: inactive

## COc1cccc2c1C(=O)c1c(O)c3c(c(O)c1C2=O)C[C@@](O)(C(=O)CO)C[C@@H]3O[C@H]1C[C@H](N)[C@H](O)[C@H](C)O1 [DOXORUBICIN]
[2]
  IC50: 71.4 µM
[3]
  IC50: 88.4 µM
[4]
  IC50: 91.2 µM
[5]
  IC50: 73.6 µM
[6]
  Activity: inactive
[7]
  Activity: inactive
[8]
  Activity: inactive
